Test results taken from patent US20070128217A1 (priority 2003, published 2007).

How the values were obtained:
[1] = tested on: antibodies in sera from SARS patients (sera 1a, 1b, 2, 6, 37, 62, London, SARS-yellow, SARS-green); format: binding, human; parameters: Binding of serum 6 to linear peptides of protein X1 of SARS-CoV Urbani / Binding of serum 37 to linear peptides of protein X1 of SARS-CoV Urbani / Binding of serum 6 to looped/cyclic peptide (PEPSCAN-ELISA) / Binding of serum 37 to looped/cyclic peptide (PEPSCAN-ELISA) / Binding of serum 37 to looped/cyclic peptides of protein X1 of SARS-CoV Urbani / Binding of serum 6 to linear peptides of protein X2 / Binding of serum 37 to linear peptides of protein X2 / Binding of serum 37 to looped/cyclic peptides of protein X2 of SARS-CoV Urbani / Binding of serum 6 to linear peptides of protein M of SARS-CoV Urbani / Binding of serum 37 to linear peptides of protein M of SARS-CoV Urbani / Binding of serum 6 to looped/cyclic peptides of protein M of SARS-CoV Urbani / Binding of serum 37 to looped/cyclic peptides of protein M of SARS-CoV Urbani / Binding of serum 6 to linear peptides of protein X3 of SARS-CoV Urbani / Binding of serum 37 to linear peptides of protein X3 of SARS-CoV Urbani / Binding of serum 37 to looped/cyclic peptides of protein X3 of SARS-CoV Urbani / Binding of serum 6 to linear peptides of protein X4 of SARS-CoV Urbani / Binding of serum 37 to linear peptides of protein X4 of SARS-CoV Urbani / Binding of serum 37 to looped/cyclic peptides of protein X4 of SARS-CoV Urbani / Binding of serum 6 to linear peptides of protein X5 of SARS-CoV Urbani / Binding of serum 37 to linear peptides of protein X5 of SARS-CoV Urbani / Binding of serum 37 to looped/cyclic peptides of protein X5 of SARS-CoV Urbani / Binding of serum 6 to linear peptides of protein N of SARS-CoV Urbani / Binding of serum 37 to linear peptides of protein N of SARS-CoV Urbani / Binding of serum 6 to linear peptide (PEPSCAN-ELISA) / Binding of serum 1a to looped/cyclic peptides of protein N of SARS-CoV Urbani / Binding of serum 1b to looped/cyclic peptides of protein N of SARS-CoV Urbani / Binding of serum 2 to looped/cyclic peptides of protein N of SARS-CoV Urbani / Binding of serum 6 to looped/cyclic peptides of protein N of SARS-CoV Urbani / Binding of serum 37 to looped/cyclic peptides of protein N of SARS-CoV Urbani / Binding of serum 62 to looped/cyclic peptides of protein N of SARS-CoV Urbani / Binding of serum London to looped/cyclic peptides of protein N of SARS-CoV Urbani / Binding of serum SARS-green to looped/cyclic peptides of protein N of SARS-CoV Urbani: unit not given here
[2] = tested on: rabbit serum obtained by immunizing a rabbit with the SARS-CoV strain Frankfurt 1; format: binding; parameters: Binding of a rabbit serum to linear peptides / Binding of a rabbit serum to looped peptides / Rabbit serum linear peptides / Rabbit serum looped peptides / Binding of a rabbit serum to linear peptides of protein N of SARS-CoV Urbani (Rabbit serum linear peptides) / Binding of a rabbit serum to looped/cyclic peptides of protein N of SARS-CoV Urbani (Rabbit serum looped peptides): unit not given here
[3] = tested on: control sera (pooled serum of ten healthy LUMC hospital workers; commercial negative donor pooled serum from the Dutch bloodbank); format: binding, human; parameters: Binding of Control serum LUMC to linear peptides / Binding of Control serum Blood-bank to linear peptides / Binding of Control serum LUMC to looped peptides / Binding of Control Serum Blood-Bank to Looped peptides / Binding of Control serum LUMC to linear peptides of the protein M of SARS-CoV Urbani / Binding of Control serum Blood-bank to linear peptides of the protein M of SARS-CoV Urbani / Binding of Control serum LUMC to looped peptides of the protein M of SARS-CoV Urbani / Binding of Control Serum Blood-Bank to Looped peptides of the protein M of SARS-CoV Urbani: unit not given here

Sequence: LVFLWLLWPVTLACF
- Binding of serum 1a to linear peptides of protein M of SARS-CoV Urbani [1]: 0.7
- Binding of serum 1a to looped/cyclic peptides of protein M of SARS-CoV Urbani [1]: 0.6
- Binding of serum 1b to linear peptides of protein M of SARS-CoV Urbani [1]: 0.5
- Binding of serum 1b to looped/cyclic peptides of protein M of SARS-CoV Urbani [1]: 0.5
- Binding of serum 2 to linear peptides of protein M of SARS-CoV Urbani [1]: 0.4
- Binding of serum 2 to looped/cyclic peptides of protein M of SARS-CoV Urbani [1]: 0.7
- Binding of serum 6 to linear peptides of protein M of SARS-CoV Urbani [1]: 0.6
- Binding of serum 6 to looped/cyclic peptides of protein M of SARS-CoV Urbani [1]: 0.6
- Binding of serum 37 to linear peptides of protein M of SARS-CoV Urbani [1]: 0.6
- Binding of serum 37 to looped/cyclic peptides of protein M of SARS-CoV Urbani [1]: 0.7
- Binding of serum 62 to linear peptides of protein M of SARS-CoV Urbani [1]: 0.8
- Binding of serum 62 to looped/cyclic peptides of protein M of SARS-CoV Urbani [1]: 0.7
- Binding of serum London to linear peptides of protein M of SARS-CoV Urbani [1]: 0.7
- Binding of serum London to looped/cyclic peptides of protein M of SARS-CoV Urbani [1]: 0.2
- Binding of serum SARS-green to linear peptides of protein M of SARS-CoV Urbani [1]: 0.2
- Binding of serum SARS-green to looped/cyclic peptides of protein M of SARS-CoV Urbani [1]: 0.3
- Binding of serum SARS-yellow to linear peptides of protein M of SARS-CoV Urbani [1]: 0.1
- Binding of serum SARS-yellow to looped/cyclic peptides of protein M of SARS-CoV Urbani [1]: 0.4
- Rabbit serum linear peptides [2]: 0.3
- Rabbit serum looped peptides [2]: 0.3
- Binding of Control Serum Blood-Bank to Looped peptides of the protein M of SARS-CoV Urbani [3]: 0.7
- Binding of Control serum Blood-bank to linear peptides of the protein M of SARS-CoV Urbani [3]: 0.5
- Binding of Control serum LUMC to linear peptides of the protein M of SARS-CoV Urbani [3]: 0.2
- Binding of Control serum LUMC to looped peptides of the protein M of SARS-CoV Urbani [3]: 0.7

Sequence: HITMTTVYHITVSQI
- Binding of serum 1a to linear peptides of protein X2 [1]: 0.6
- Binding of serum 1a to looped/cyclic peptides of protein X2 of SARS-CoV Urbani [1]: 0.6
- Binding of serum 1b to linear peptides of protein X2 [1]: 0.6
- Binding of serum 1b to looped/cyclic peptides of protein X2 of SARS-CoV Urbani [1]: 0.6
- Binding of serum 2 to linear peptides of protein X2 [1]: 0.5
- Binding of serum 2 to looped/cyclic peptides of protein X2 of SARS-CoV Urbani [1]: 0.3
- Binding of serum 6 to linear peptides of protein X2 [1]: 0.4
- Binding of serum 6 to looped/cyclic peptides of protein X2 of SARS-CoV Urbani [1]: 0.3
- Binding of serum 37 to linear peptides of protein X2 [1]: 0.6
- Binding of serum 37 to looped/cyclic peptides of protein X2 of SARS-CoV Urbani [1]: 0.6
- Binding of serum 62 to linear peptides of protein X2 [1]: 0.3
- Binding of serum 62 to looped/cyclic peptides of protein X2 of SARS-CoV Urbani [1]: 0.7
- Binding of serum London to linear peptides of protein X2 [1]: 0.4
- Binding of serum London to looped/cyclic peptides of protein X2 of SARS-CoV Urbani [1]: 0.2
- Binding of serum SARS-green to linear peptides of protein X2 [1]: 0.2
- Binding of serum SARS-green to looped/cyclic peptides of protein X2 of SARS-CoV Urbani [1]: 0.4
- Binding of serum SARS-yellow to linear peptides of protein X2 [1]: 0.7
- Binding of serum SARS-yellow to looped/cyclic peptides of protein X2 of SARS-CoV Urbani [1]: 0.5
- Binding of a rabbit serum to linear peptides [2]: 0.7
- Binding of a rabbit serum to looped peptides [2]: 0.4
- Binding of Control Serum Blood-Bank to Looped peptides [3]: 0.7
- Binding of Control serum Blood-bank to linear peptides [3]: 0.5
- Binding of Control serum LUMC to linear peptides [3]: 0.5
- Binding of Control serum LUMC to looped peptides [3]: 0.6

Sequence: NVPLRGTIVTRPLME
- Binding of serum 1a to linear peptides of protein M of SARS-CoV Urbani [1]: 0.8
- Binding of serum 1b to linear peptides of protein M of SARS-CoV Urbani [1]: 0.6
- Binding of serum 2 to linear peptides of protein M of SARS-CoV Urbani [1]: 0.4
- Binding of serum 6 to linear peptides of protein M of SARS-CoV Urbani [1]: 0.3
- Binding of serum 37 to linear peptides of protein M of SARS-CoV Urbani [1]: 0.7
- Binding of serum 62 to linear peptides of protein M of SARS-CoV Urbani [1]: 0.8
- Binding of serum London to linear peptides of protein M of SARS-CoV Urbani [1]: 0.3
- Binding of serum SARS-green to linear peptides of protein M of SARS-CoV Urbani [1]: 0.4
- Binding of serum SARS-yellow to linear peptides of protein M of SARS-CoV Urbani [1]: 0.1
- Recognition of the peptide by sera of SARS-CoV infected individuals, and form (linear, looped/cyclic) in which it is recognized [1]: recognized in looped/cyclic form
- Rabbit serum linear peptides [2]: 0.3
- Rabbit serum looped peptides [2]: 0.5
- Binding of Control Serum Blood-Bank to Looped peptides of the protein M of SARS-CoV Urbani [3]: 0.7
- Binding of Control serum Blood-bank to linear peptides of the protein M of SARS-CoV Urbani [3]: 0.6
- Binding of Control serum LUMC to linear peptides of the protein M of SARS-CoV Urbani [3]: 0.4
- Binding of Control serum LUMC to looped peptides of the protein M of SARS-CoV Urbani [3]: 0.9

Sequence: VVHGYFTEVYYQLES
- Binding of serum 1a to linear peptides of protein X1 of SARS-CoV Urbani [1]: 0.8
- Binding of serum 1a to looped/cyclic peptides of protein X1 of SARS-CoV Urbani [1]: 0.6
- Binding of serum 1b to linear peptides of protein X1 of SARS-CoV Urbani [1]: 0.7
- Binding of serum 1b to looped/cyclic peptides of protein X1 of SARS-CoV Urbani [1]: 0.4
- Binding of serum 2 to linear peptides of protein X1 of SARS-CoV Urbani [1]: 0.4
- Binding of serum 2 to looped/cyclic peptides of protein X1 of SARS-CoV Urbani [1]: 0.4
- Binding of serum 6 to linear peptides of protein X1 of SARS-CoV Urbani [1]: 0.3
- Binding of serum 6 to looped/cyclic peptides of protein X1 of SARS-CoV Urbani [1]: 0.3
- Binding of serum 37 to linear peptides of protein X1 of SARS-CoV Urbani [1]: 0.5
- Binding of serum 37 to looped/cyclic peptides of protein X1 of SARS-CoV Urbani [1]: 0.6
- Binding of serum 62 to linear peptides of protein X1 of SARS-CoV Urbani [1]: 0.4
- Binding of serum 62 to looped/cyclic peptides of protein X1 of SARS-CoV Urbani [1]: 0.5
- Binding of serum London to linear peptides of protein X1 of SARS-CoV Urbani [1]: 0.2
- Binding of serum London to looped/cyclic peptides of protein X1 of SARS-CoV Urbani [1]: 0.2
- Binding of serum SARS-green to linear peptides of protein X1 of SARS-CoV Urbani [1]: 0.2
- Binding of serum SARS-green to looped/cyclic peptides of protein X1 of SARS-CoV Urbani [1]: 0.2
- Binding of serum SARS-yellow to linear peptides of protein X1 of SARS-CoV Urbani [1]: 0.3
- Binding of serum SARS-yellow to looped/cyclic peptides of protein X1 of SARS-CoV Urbani [1]: 0.4
- Binding of a rabbit serum to linear peptides [2]: 0.1
- Binding of a rabbit serum to looped peptides [2]: 0.7
- Binding of Control Serum Blood-Bank to Looped peptides [3]: 0.4
- Binding of Control serum Blood-bank to linear peptides [3]: 0.4
- Binding of Control serum LUMC to linear peptides [3]: 0.8
- Binding of Control serum LUMC to looped peptides [3]: 0.6

Sequence: ELLIQQWIQFMMSRR
- Binding of serum 1a to linear peptides of protein X2 [1]: 0.7
- Binding of serum 1a to looped/cyclic peptides of protein X2 of SARS-CoV Urbani [1]: 0.5
- Binding of serum 1b to linear peptides of protein X2 [1]: 0.5
- Binding of serum 1b to looped/cyclic peptides of protein X2 of SARS-CoV Urbani [1]: 0.4
- Binding of serum 2 to linear peptides of protein X2 [1]: 0.4
- Binding of serum 2 to looped/cyclic peptides of protein X2 of SARS-CoV Urbani [1]: 0.5
- Binding of serum 6 to linear peptides of protein X2 [1]: 0.3
- Binding of serum 6 to looped/cyclic peptides of protein X2 of SARS-CoV Urbani [1]: 0.3
- Binding of serum 37 to linear peptides of protein X2 [1]: 0.6
- Binding of serum 37 to looped/cyclic peptides of protein X2 of SARS-CoV Urbani [1]: 0.5
- Binding of serum 62 to linear peptides of protein X2 [1]: 0.6
- Binding of serum 62 to looped/cyclic peptides of protein X2 of SARS-CoV Urbani [1]: 0.6
- Binding of serum London to linear peptides of protein X2 [1]: 0.4
- Binding of serum London to looped/cyclic peptides of protein X2 of SARS-CoV Urbani [1]: 0.2
- Binding of serum SARS-green to linear peptides of protein X2 [1]: 0.6
- Binding of serum SARS-green to looped/cyclic peptides of protein X2 of SARS-CoV Urbani [1]: 0.4
- Binding of serum SARS-yellow to linear peptides of protein X2 [1]: 0.8
- Binding of serum SARS-yellow to looped/cyclic peptides of protein X2 of SARS-CoV Urbani [1]: 0.4
- Binding of a rabbit serum to linear peptides [2]: 0.4
- Binding of a rabbit serum to looped peptides [2]: 0.4
- Binding of Control Serum Blood-Bank to Looped peptides [3]: 0.6
- Binding of Control serum Blood-bank to linear peptides [3]: 0.5
- Binding of Control serum LUMC to linear peptides [3]: 0.4
- Binding of Control serum LUMC to looped peptides [3]: 0.5
